Experiments:
mouse QC = mouse QC (Mus musculus, UniProt Q9CYK2); experiment: inhibition of mouse QC in vitro; type: biochemical
human QC = human QC (Homo sapiens, UniProt Q16769); experiment: inhibition of human QC in vitro; type: biochemical
solubility in water = type: physicochemical

mouse QC, sequence (Q9CYK2 36-362): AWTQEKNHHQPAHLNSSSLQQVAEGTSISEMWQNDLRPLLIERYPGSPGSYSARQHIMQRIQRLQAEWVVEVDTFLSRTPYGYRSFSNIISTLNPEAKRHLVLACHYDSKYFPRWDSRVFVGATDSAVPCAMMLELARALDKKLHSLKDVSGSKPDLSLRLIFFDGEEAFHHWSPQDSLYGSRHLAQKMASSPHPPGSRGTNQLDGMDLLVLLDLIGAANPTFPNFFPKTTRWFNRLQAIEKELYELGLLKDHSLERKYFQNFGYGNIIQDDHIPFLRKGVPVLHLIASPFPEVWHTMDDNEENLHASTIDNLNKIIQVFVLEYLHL
human QC, sequence (Q16769 29-361): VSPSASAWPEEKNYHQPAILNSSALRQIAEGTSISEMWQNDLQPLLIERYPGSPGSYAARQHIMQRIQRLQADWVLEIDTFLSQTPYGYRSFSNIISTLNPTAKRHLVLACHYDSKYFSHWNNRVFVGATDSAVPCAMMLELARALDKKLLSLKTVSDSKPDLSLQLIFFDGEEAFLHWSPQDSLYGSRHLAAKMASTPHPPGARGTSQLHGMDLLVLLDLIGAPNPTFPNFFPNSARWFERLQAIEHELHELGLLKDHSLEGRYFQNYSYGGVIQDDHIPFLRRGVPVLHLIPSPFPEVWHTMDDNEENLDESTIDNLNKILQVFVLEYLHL

COc1ccc(NC(=S)NCCCn2ccnc2)cc1OC [Inhibitor A, 1-(3-(1H-Imidazol-1-yl)propyl)-3-(3,4-dimethoxyphenyl)thiourea]
inhibition of mouse QC (mouse QC): inhibits
inhibition of human QC (human QC): inhibits
solubility in water (solubility in water): soluble in water
